Results reported in PMC9908594, “Biochemical characterization and identification of ferulenol and embelin as potent inhibitors of malate:quinone oxidoreductase from Campylobacter jejuni” (Frontiers in Molecular Biosciences, 2023).
Several values for one entry are separate records, joined by “and”; a condition that tells them apart may be missing. Equal values may be shown once. Read-outs that look alike come from different tables or passages of the source.

Legend:
[1] = target: T1, CjMQO (Campylobacter jejuni, UniProt P56954); assay: Inhibition mechanism of CjMQO (mixed-model fit, Lineweaver-Burk); assay type: biochemical
Method: The inhibition mechanism of the two compounds were investigated as described in a previous study ([Acharjee et al., 2021]). First, the inhibition mechanism versus UQ1 was assayed separately in a reaction mixture containing 50 mM MOPS pH 7.0, 1 mM KCN and 0.2 μg/mL of purified CjMQO containing a range of different ferulenol (0, 0.01, 0.02, and 0.04 μM) and embelin (0, 0.05, 0.1, and 0.15 μM) concentrations. Enzyme activity was measured at varying concentrations of UQ1 (5, 10, 20, 50, and 100 μM) and the reaction was initiated with 10 mM malate. Second, the inhibition mechanism versus malate was determined at 50 μM of UQ1, and the reaction was initiated with varying concentrations of malate (5, 10, 15, and 20 mM) and monitored at 278 nm, in singlets. The steady-state kinetics parameters, in the presence of inhibitors, were used to produce the Lineweaver-Burk plot. Next, the data were fitted to a mixed-type inhibition equation by a nonlinear-regression method using GraphPad Prism software. The intercept and slope from the primary plot (Lineweaver-Burk plot), were replotted as a function of the inhibitor. Finally, additional analysis was performed based on Dixon and Cornish Bowden plots in addition to the plot of Lineweaver-Burk to differentiate the types of inhibition mechanisms.

[2] = system: TgMQO; design: method as in Acharjee et al., 2021; conditions: previously reported; ref Acharjee et al., 2021; cited from earlier work
[3] = system: Panc-1 (pancreatic cancer-derived); design: method as in Hartuti et al., 2018; conditions: ref Hartuti et al., 2018, read-out: Cytotoxicity IC50; cited from earlier work
[4] = system: C. jejuni ATCC29428; assay: C. jejuni growth inhibition, resazurin assay; assay type: cell-based, Campylobacter jejuni; conditions: Mueller Hinton broth, 24 h, microaerophilic, 37°C, resazurin
[5] = system: DLD-1 (colon cancer-derived); design: method as in Hartuti et al., 2018; conditions: ref Hartuti et al., 2018, read-out: Cytotoxicity IC50; cited from earlier work
[6] = system: human dermal fibroblast; design: method as in Hartuti et al., 2018; conditions: ref Hartuti et al., 2018, read-out: Cytotoxicity IC50; cited from earlier work
[7] = target: CjMQO (malate:quinone oxidoreductase from C. jejuni) (Campylobacter jejuni, UniProt P56954); assay: biochemical; assay type: biochemical; conditions: 50 mM MOPS pH 7.0, 100 μM UQ1, 1 mM KCN, 0.2 μg/mL CjMQO, 10 mM malate; read-out: IC50 on purified CjMQO
[8] = target: PfMQO (P. falciparum MQO) (Plasmodium falciparum, UniProt C6KT09); design: method as in Hartuti et al., 2018; conditions: previously reported; ref Hartuti et al., 2018; cited from earlier work
Sequence of PfMQO (P. falciparum MQO) (C6KT09 entry or part of it): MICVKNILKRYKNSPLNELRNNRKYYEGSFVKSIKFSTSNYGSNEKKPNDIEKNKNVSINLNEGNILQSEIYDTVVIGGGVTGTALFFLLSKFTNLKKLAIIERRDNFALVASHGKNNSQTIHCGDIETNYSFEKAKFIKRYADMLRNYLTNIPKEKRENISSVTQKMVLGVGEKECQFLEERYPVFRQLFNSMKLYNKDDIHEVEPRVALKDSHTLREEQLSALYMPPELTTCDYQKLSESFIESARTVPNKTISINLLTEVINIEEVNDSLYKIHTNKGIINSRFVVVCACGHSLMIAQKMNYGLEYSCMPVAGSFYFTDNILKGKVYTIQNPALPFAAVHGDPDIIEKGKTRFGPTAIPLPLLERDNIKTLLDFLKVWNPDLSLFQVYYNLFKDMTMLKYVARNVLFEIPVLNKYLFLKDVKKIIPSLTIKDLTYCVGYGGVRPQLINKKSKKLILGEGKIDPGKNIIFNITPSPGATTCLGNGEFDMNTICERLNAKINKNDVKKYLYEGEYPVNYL

[9] = system: TgMQO; design: method as in Acharjee et al., 2021; conditions: ref Acharjee et al., 2021, cited from earlier work
[10] = target: T1, CjMQO; assay: Steady-state kinetics of purified CjMQO for substrates; assay type: biochemical; conditions: for V max / k cat / k cat /K m / K m for ubiquinone: UQ varied, malate fixed 10 mM; for K m for ubiquinone: pH 7.0, 37°C; for K m for malate: malate varied
Method: (§1) The steady-state kinetic parameters of CjMQO were determined for malate and ubiquinone (UQ) with different side chain length (UQ0, UQ1, UQ2, UQ4, and dUQ; Supplementary Figure S3). The reaction mixture contained UQ, 1% (v/v) ethanol, 50 mM MOPS, 1 mM KCN and 0.2 μg/mL of purified CjMQO at the optimal pH (pH 7.0) and physiological temperature (37°C). The reduction of quinones was measured through the decrease in the absorbance at 278 nm ( ε278= 15 mM^-1 cm^-1). The Michaelis constant (K m) and maximum velocity (V max) of CjMQO for UQs were determined by varying the concentrations of UQs from 0.1 to 100 μM with the malate concentration fixed at 10 mM.
(§2) Next, K m and V max of CjMQO for malate were determined by varying the concentrations from 0.5 to 50 mM at fixed concentrations of different UQs (100 μM for UQ0 and UQ1 and 10 μM for dUQ and UQ2). The apparent steady-state kinetic parameters were calculated by Michaelis-Menten equation using GraphPad Prism software (ver. 9.3.1, GraphPad Software, Inc., San Diego, California, United States). Following the protocol previously described for TgMQO ([Acharjee et al., 2021]), the reaction mechanism of CjMQO was analysed using malate and UQ1 as substrates. Briefly, CjMQO activity was measured at different UQ1 concentrations (2, 5, 10, 20, and 50 μM) with malate concentrations fixed at 0.5, 2, and 5 mM; the data were then analysed using a double reciprocal plot (Lineweaver-Burk plot) produced by utilizing intercept and slope calculated from steady-state kinetics parameters obtained by fitting the data to Michalis-Menten equation with GraphPad Prism software. The type of reaction mechanism was determined based on the characteristics of the lines plotted in the double reciprocal plot.

[11] = system: PfMQO; design: method as in Hartuti et al., 2018; conditions: for dUQ; ref Hartuti et al., 2018; cited from earlier work
[12] = substrate: COC1=C(OC)C(=O)C(CC=C(C)C)=C(C)C1=O; assay: Steady-state kinetics of purified CjMQO for substrates; assay type: biochemical; conditions: pH 7.0, 37.0 °C
Method: as §1, §2

[13] = substrate: CCCCCCCCCCC1=C(C)C(=O)C(OC)=C(OC)C1=O; assay: as above; assay type: biochemical; conditions: other: UQ varied, malate fixed 10 mM; pH 7.0; 37.0 °C
Method: as §1, §2

[14] = substrate: O=C(O)CC(O)C(=O)O; assay: as above; assay type: biochemical; conditions: other: malate varied, pH 7.0, 37.0 °C
Method: as §1, §2

[15] = other: UQ varied, malate fixed 10 mM

## CC(C)=CCC/C(C)=C/CC/C(C)=C/Cc1c(O)c2ccccc2oc1=O [Ferulenol, ferulenol]
[1]; UQ1 varied, malate fixed
  K m (apparent, mixed-model fit): 42 ± 5 µM
  V max (apparent, mixed-model fit): 133 ± 7 µmol/min/mg
  α versus UQ1 (quinone): 1.04
[1]; UQ1 varied, malate fixed (10 mM)
  K i versus UQ1: 0.02 µM
[1]; UQ1 varied, malate fixed, NC: noncompetitive
  Inhibition type versus UQ1 (quinone): noncompetitive
[1]; malate varied, UQ1 fixed
  Inhibition type versus malate: Mixed
  K m (apparent, mixed-model fit): 1,845 ± 201 μM
  V max (apparent, mixed-model fit): 70 ± 2 µmol/min/mg
  α versus malate: 2.66
[1]; malate varied, UQ1 fixed (50 μM)
  K i versus malate: 0.01 µM
[1]; malate varied, UQ1 fixed, listed as ferulenol
  Inhibition type versus malate: mixed-type
[2]
  IC50: 0.822 µM
[3]
  IC50: 50.2 µM
[4]
  IC50: 0.6 µM
[5]
  IC50: 50.1 µM
[6]
  IC50: 65.8 µM
[7]
  IC50: 0.018 µM
[8]
  IC50: 0.057 µM

## COC1=C(OC)C(=O)C(C)=CC1=O [UQ0]
[9]
  K m of TgMQO for ubiquinone: 225 µM
  V max of TgMQO for ubiquinone: 13 µmol/min/mg
[10]
  V max: 49 µmol/min/mg and 49.0 ± 2.4 µmol/min/mg
  k cat: 219 ± 13.1 s⁻¹
  k cat /K m: 1.3e+06 M⁻¹ s⁻¹
  K m for ubiquinone: 168 µM and 168 ± 12.0 µM

## COC1=C(OC)C(=O)C(C/C=C(\C)CC/C=C(\C)CC/C=C(\C)CCC=C(C)C)=C(C)C1=O [UQ4]
[10]
  V max: 10 µmol/min/mg and 10.0 ± 1.0 µmol/min/mg
  k cat: 43.9 ± 11.4 s⁻¹
  k cat /K m: 5.3e+07 M⁻¹ s⁻¹
  K m for ubiquinone: 0.8 µM and 0.80 ± 0.2 µM
[10]; possibly due to low solubility in the assay condition
  Concentration above which substrate inhibition was observed: > 2 µM

## COC1=C(OC)C(=O)C(C/C=C(\C)CCC=C(C)C)=C(C)C1=O [UQ2]
[10]
  V max: 108 µmol/min/mg and 108 ± 10 µmol/min/mg
  k cat: 485 ± 42.0 s⁻¹
  k cat /K m: 1.07e+08 M⁻¹ s⁻¹
  K m for ubiquinone: 4.6 µM and 4.60 ± 1.0 µM

## CCCCCCCCCCC1=C(C)C(=O)C(OC)=C(OC)C1=O [dUQ, decylubiquinone]
[9]
  K m of TgMQO for ubiquinone: 17 µM
  V max of TgMQO for ubiquinone: 12 µmol/min/mg
[10]
  K m for ubiquinone: 8.5 µM and 8.50 ± 2.0 µM

## O=C(O)CC(O)C(=O)O (stereo not drawn) [Malate, sodium malate]
[9]; in the presence of UQ1
  K m of TgMQO for malate: 370 µM
[9]; in the presence of UQ2
  K m of TgMQO for malate: 637 µM
[9]; in the presence of dUQ
  K m of TgMQO for malate: 466 µM
[11]
  K m of PfMQO for malate: 5,990 μM
[10]; UQ0 fixed (100 μM)
  K m for malate: 298 ± 18 µM
[10]; UQ0 fixed (100 μM), listed as malate
  K m for malate: 298 µM
[10]; UQ1 fixed (100 μM)
  K m for malate: 882 ± 49 µM
[10]; UQ1 fixed (100 μM), listed as malate
  K m for malate: 882 µM
[10]; UQ2 fixed (10 μM)
  K m for malate: 1,031 ± 93 μM
[10]; UQ2 fixed (10 μM), listed as malate
  K m for malate: 1,031 μM
[10]; dUQ fixed (10 μM)
  K m for malate: 1,209 ± 160 μM
[10]; dUQ fixed (10 μM), listed as malate
  K m for malate: 1,209 μM

## COC1=C(OC)C(=O)C(CC=C(C)C)=C(C)C1=O [UQ1]
[9]
  K m of TgMQO for ubiquinone: 116 µM
  V max of TgMQO for ubiquinone: 44 µmol/min/mg
[10]
  K m for ubiquinone: 46 µM and 46.0 ± 3.1 µM

B1: CjMQO (Campylobacter jejuni subsp. jejuni NCTC 11168 = ATCC 700819) (protein)
chain: MSQQEFDVLVIGAGISGAALFYELARYTNIKNIALIEKYNTAATLNSKGTSNSQTIHCGDIETNYTLEKARKVKRTADMIVKYGLMQNAQNNFMFSHQKMALAVGDIECDYMKKRYEEFKELYPYIKFFDKAKIKQIEPKVVLGEDCNQDRPENICAMGVESGEVFTTVDFGKMSINLIEQAQKQNKNTFVAFNQEIIHIEKKDDIFILKTSNHQEYHAKSVVVNAGAHSLYLAHKMNLGMDKSCWPVAGSFYLTKQKLLNGKVYMVQNPKLPFAALHGDPDLLADMNTRFGPTALVIPKLERYHGLKSVPEFFEALKLDKTVLKVTFNMFKDATIRNYIFYNYLFELPFVDKSLFVKDAKKIVPSLKASDIYYAKGFGGVRPQVIDKTKGELMLGEASITETPGIIFNMTPSPGATSCLGNAERDAKLVCNYLGMEFNEDKFSSELL
[12]; [15]
  kcat: 480 ± 18.7 s⁻¹
  kcat/Km: 1.05e+07 M⁻¹ s⁻¹
[12]; other: malate fixed at 0.5 mM
  Km: 16.3 µM
[12]; other: malate fixed at 2 mM
  Km: 23.8 µM
[12]; other: malate fixed at 10 mM
  Km: 32.6 µM
[13]
  kcat: 343 ± 40.4 s⁻¹
  kcat/Km: 4.02e+07 M⁻¹ s⁻¹
[14]; UQ0 fixed (100 μM)
  kcat: 67 ± 1.1 s⁻¹
  kcat/Km: 200000 M⁻¹ s⁻¹
[14]; UQ1 fixed (100 μM)
  kcat: 502 ± 55.6 s⁻¹
  kcat/Km: 600000 M⁻¹ s⁻¹
[14]; UQ2 fixed (10 μM)
  kcat: 389 ± 7.6 s⁻¹
  kcat/Km: 400000 M⁻¹ s⁻¹
[14]; dUQ fixed (10 μM)
  kcat: 210 ± 19.2 s⁻¹
  kcat/Km: 200000 M⁻¹ s⁻¹
